Experimental data taken from patent US9700543B2, “GLP-1 receptor stabilizers and modulators” (Celgene International II SÀRL, priority 2011, dated 2017).

Columns and labels:
GLP-1R = target: T1, GLP-1R (Homo sapiens, UniProt P43220); assay: EC20 GLP-1(9-36) PAM cAMP assay: dose response of compound in the presence of fixed concentration of GLP-1(9-36); assay type: cell-based; conditions: compound dose response with fixed GLP-1(9-36), GLP-1R CRE-bla CHO-K1 cells; for EC20 GLP-1 (9-36) PAM Activity max cAMP: Emax as total cAMP; for EC50: cAMP
T1 construct: host or cells: CRE-bla CHO-K1
Method: EC20GLP-1(9-36) PAM cAMP Assay: Dose Response of Compound in the Presence of Fixed Concentration of GLP-1 (9-36)
GLP-1R CRE-bla CHO-K1 cells were seeded into 384-well white flat bottom plates at 10,000 cells/well/20 μL growth medium (DMEM-High glucose, 10% dialyzed FBS, 0.1 mM NEAA, 25 mM Hepes, 100 U/mL penicillin/100 μg/mL streptomycin, 5 μg/mL Blasticidin, 600 μg/mL Hygromycin) and incubated for 18 h at 37° C. in 5% CO2. Growth medium was replaced with 12 μL assay buffer (Hanks Balanced Salt solution, 10 mM Hepes, 0.1% BSA, pH7.4). A 5× compound dose response curve (12-point) was generated in assay buffer containing 1.5 mM IBMX, 12.5% DMSO. GLP-1(9-36) was diluted to 4.2 μM in assay buffer containing 1.5 mM IBMX and 12.5% DMSO. The 5× compound dose response was added (3 μL), followed by 0.5 μL of GLP-1(9-36) and cells were incubated for 30 min at 37° C. Direct detection of cAMP was carried out using DiscoveRx HitHunter cAMP kit according to manufacturer's instructions and luminescence was read using a SpectraMax M5 plate reader. Luminescence was converted to total cAMP using a cAMP standard curve and data was analyzed by non-linear regression to determine the EC50 and Emax.

[1] = Determination of absolute oral bioavailability in rats; assay type: in vivo; conditions: rat, plasma; fasted female Sprague-Dawley rats; oral solution 5 mg/kg, intravenous 1 mg/kg
Method: Determination of Absolute Oral Bioavailability in Rats
All pharmacokinetic studies were conducted in fasted female Sprague-Dawely rats (Simonsen Laboratories or Harlan Laboratories). Rats were housed in an ALAAC accredited facility and the research was approved by the facilities Institutional Animal Care and Use Committee (IACUC). The animals were acclimated to the laboratory for at least 48 h prior to initiation of experiments.
Compounds were formulated in 20% hydroxy beta cyclodextrin or 20% captisol and 80%-25 mM NaPO4 Buffer (pH 8) (intravenous infusion), or 5% DMSO/5% Tween20 and 90% water (oral gavage or intraperitoneal injection). The concentration of the dosing solutions was verified by HPLC-UV. For intravenous dosing, compounds were administered into the tail vein to manually restrained animals (n=3 rats/compound). The intravenous dose was 1 mg/kg. Oral dosing was by gavage using a standard stainless steel gavage needle (n=2-4 rats/compound). The oral solution dose was 5 mg/kg. For compounds 1 and 3, the oral solution dose was 30 mg/kg. For both routes of administration, blood was collected into BD Microtainer tubes with Dipotassium EDTA as the anticoagulantant eight time-points after dosing with the final sample drawn 24 h post dose Plasma was separated by centrifugation and transferred to a polypropylene 96-well plate and kept at 4° C. until analysis.
Proteins were precipitated by adding 150 μL acetonitrile to 50 μL of plasma. Plates were mixed for 1 min on a plate shaker to facilitate protein precipitation and then centrifuged at 3,000 rpm for 10 min to pellet protein. The supernatant was transferred to a clean plate and centrifuged at 3,000 rpm for 10 min to pellet any remaining solid material prior to LC/MS/MS analysis. Calibration curve standards were prepared by spiking 54 compound stock in DMSO into rat plasma from untreated animals. An eight point standard curve spanning a range of 0.14 nM to 300 nM was included with each bio-analytical run. The standards were processed identically to the rat pharmacokinetic samples.
Concentrations in the rat pharmacokinetic samples were determined using a standardized HPLC-LC/MS/MS method relative to the eight point standard curve. The system consisted of a Leap CTC Pal injector, Agilent 1200 HPLC with binary pump coupled with an Applied Biosystems 4000 QTrap. Compounds were chromatographed on a Phenomenex Luna C8(2) 20×2 mm 2 um Mercury Cartridge with Security Guard. A gradient method was used with mobile phase A consisting of 0.1% formic acid in water and mobile phase B consisting of 0.1% formic acid in acetonitrile at flow rates varying from 0.7 to 0.8 mL/min. Ions were generated in positive ionization mode using an electrospray ionization (ESI) interface. Multiple reaction monitoring (MRM) methods were developed specific to each compound. The heated nebulizer was set at 500° C. with a nebulizer current of 5.1 μA. Collision energies used to generate daughter ions ranged between 29 and 80 V. Peak area obtained from MRM of the mass transitions specific for each compound were used for quantification. The limit of quantification of the method was typically 1.2 nM. Data were collected and analyzed using Analyst software version 1.5.1. Blood concentration versus time data were analyzed using non-compartmental methods (WinNonlin Phoenix version 6.2; model 200 for oral or intraperitoneal dosing and model 202 for intravenous infusion). Absolute oral bioavailability (%) was calculated using the following expression: (Oral AUC×IV Dose)/(IV AUC×Oral Dose)×100.

T1 sequence (P43220 24-463): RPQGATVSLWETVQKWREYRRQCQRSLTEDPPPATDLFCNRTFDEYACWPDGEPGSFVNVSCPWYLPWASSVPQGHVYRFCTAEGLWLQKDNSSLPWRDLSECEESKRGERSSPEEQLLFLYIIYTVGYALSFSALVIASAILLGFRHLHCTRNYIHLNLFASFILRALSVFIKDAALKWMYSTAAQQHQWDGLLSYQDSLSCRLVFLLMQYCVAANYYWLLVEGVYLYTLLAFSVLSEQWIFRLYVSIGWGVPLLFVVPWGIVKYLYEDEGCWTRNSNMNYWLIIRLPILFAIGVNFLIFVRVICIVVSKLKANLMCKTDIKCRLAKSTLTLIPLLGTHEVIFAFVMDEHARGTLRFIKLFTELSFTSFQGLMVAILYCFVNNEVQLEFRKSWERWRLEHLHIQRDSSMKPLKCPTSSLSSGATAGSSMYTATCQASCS
T1 sequence (P01275 100-127 partner limits assumed): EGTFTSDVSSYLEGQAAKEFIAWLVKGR

Row | SMILES | EC20 GLP-1 (9-36) PAM Activity max cAMP (GLP-1R) | EC50 (GLP-1R) | bioavailability [1]
1 | COc1ccc(OC)c(CC(=O)Nc2ccc(C(=O)N(CC(=O)O)Cc3ccc(-c4nc(-c5ccc(-c6ccc(C)cc6)cc5)no4)cc3)cc2)c1 [Compound 457, 2-(4-(2-(2,5-dimethoxyphenyl)acetamido)-N-(4-(3-(4′-methyl-[1,1′-biphenyl]-4-yl)-1,2,4-oxadiazol-5-yl)benzyl)benzamido)acetic acid] | 0.266 µM | 0.2 µM | 19.4%
2 | COc1ccc(CC(=O)Nc2ccc(C(=O)N(CC(=O)O)Cc3ccc(-c4nc(-c5ccc(-c6ccc(C)cc6)cc5)co4)cc3)cc2)c(C(F)(F)F)c1 [Compound 360, 2-(4-(2-(4-methoxy-2-(trifluoromethyl)phenyl)acetamido)-N-(4-(4-(4′-methyl-[1,1′-biphenyl]-4-yl)oxazol-2-yl)benzyl)benzamido)acetic acid] | 0.29 µM | 0.5 µM | 2%
3 | COc1ccc(CC(=O)Nc2ccc(C(=O)N(CC(=O)O)Cc3ccc(-c4nc(-c5ccc(-c6ccc(C)cc6)cc5)no4)cc3)cc2)c(C(F)(F)F)c1 [Compound 362, 2-(4-(2-(4-methoxy-2-(trifluoromethyl)phenyl)acetamido)-N-(4-(3-(4′-methyl-[1,1′-biphenyl]-4-yl)-1,2,4-oxadiazol-5-yl)benzyl)benzamido)acetic acid] | 0.281 µM | 0.3 µM | 8%
4 | COc1ccc(CC(=O)Nc2ccc(C(=O)N(CC(=O)O)Cc3ccc(-c4noc(-c5ccc(-c6ccc(C)cc6)cc5)n4)cc3)c(F)c2)c(C(F)(F)F)c1 [Compound 496, 2-(2-fluoro-4-(2-(4-methoxy-2-(trifluoromethyl)phenyl)acetamido)-N-(4-(5-(4′-methyl-[1,1′-biphenyl]-4-yl)-1,2,4-oxadiazol-3-yl)benzyl)benzamido)acetic acid] | 0.31 µM | 0.5 µM | 7%
5 | COc1ccc(CC(=O)Nc2ccc(C(=O)N(CC(=O)O)Cc3ccc(-c4nc(-c5ccc(C)cc5)no4)cc3)cc2)c(C(F)(F)F)c1 [Compound 363, 2-(4-(2-(4-methoxy-2-(trifluoromethyl)phenyl)acetamido)-N-(4-(3-(p-tolyl)-1,2,4-oxadiazol-5-yl)benzyl)benzamido)acetic acid] | 0.237 µM | 3.2 µM | 3%
6 | COc1ccc(CC(=O)Nc2ccc(C(=O)N(CC(=O)O)Cc3ccc(-c4noc(-c5ccc(C)cc5)n4)cc3)cc2)c(C(F)(F)F)c1 [Compound 355, 2-(4-(2-(4-methoxy-2-(trifluoromethyl)phenyl)acetamido)-N-(4-(5-(p-tolyl)-1,2,4-oxadiazol-3-yl)benzyl)benzamido)acetic acid] | 0.266 µM | 2.9 µM | 2%
7 | COc1cccc(OC)c1CC(=O)Nc1ccc(C(=O)N(CC(=O)O)Cc2ccc(-c3nc(-c4ccc(-c5ccc(C)cc5)cc4)no3)cc2)cc1 [Compound 458, 2-(4-(2-(2,6-dimethoxyphenyl)acetamido)-N-(4-(3-(4′-methyl-[1,1′-biphenyl]-4-yl)-1,2,4-oxadiazol-5-yl)benzyl)benzamido)acetic acid] | 0.302 µM | 0.2 µM | 14.8%
8 | COc1ccc(OC)c(CC(=O)Nc2ccc(C(=O)N(CC(=O)O)Cc3ccc(-c4noc(-c5ccc(-c6ccc(C)cc6)cc5)n4)cc3)cc2)c1 [Compound 405, 2-(4-(2-(2,5-dimethoxyphenyl)acetamido)-N-(4-(5-(4′-methyl-[1,1′-biphenyl]-4-yl)-1,2,4-oxadiazol-3-yl)benzyl)benzamido)acetic acid] | 0.206 µM | 0.3 µM | 8%
